Test results from patent publication US20070072897A1, “Phenylaminopropanol derivatives and methods of their use” (Wyeth, priority 2005, published 2007).
Counter-ions that a name gives are not always drawn.

Key:
[1] = target: T1, human hNET (Homo sapiens, UniProt P23975); assay: Norepinephrine (NE) uptake assay in MDCK-Net6 cells; format: cell-based; settings: [3H]NE uptake; for inhibition at 1 µM: MDCK-Net6 cells, read-out: hNET Percentage inhibition at 1 μM; for EC50: MDCK-Net6 cells stably transfected with hNET
T1 construct: expressed in transfected cells; host or cells: MDCK (MDCK-Net6)
T1 sequence (P23975 whole entry): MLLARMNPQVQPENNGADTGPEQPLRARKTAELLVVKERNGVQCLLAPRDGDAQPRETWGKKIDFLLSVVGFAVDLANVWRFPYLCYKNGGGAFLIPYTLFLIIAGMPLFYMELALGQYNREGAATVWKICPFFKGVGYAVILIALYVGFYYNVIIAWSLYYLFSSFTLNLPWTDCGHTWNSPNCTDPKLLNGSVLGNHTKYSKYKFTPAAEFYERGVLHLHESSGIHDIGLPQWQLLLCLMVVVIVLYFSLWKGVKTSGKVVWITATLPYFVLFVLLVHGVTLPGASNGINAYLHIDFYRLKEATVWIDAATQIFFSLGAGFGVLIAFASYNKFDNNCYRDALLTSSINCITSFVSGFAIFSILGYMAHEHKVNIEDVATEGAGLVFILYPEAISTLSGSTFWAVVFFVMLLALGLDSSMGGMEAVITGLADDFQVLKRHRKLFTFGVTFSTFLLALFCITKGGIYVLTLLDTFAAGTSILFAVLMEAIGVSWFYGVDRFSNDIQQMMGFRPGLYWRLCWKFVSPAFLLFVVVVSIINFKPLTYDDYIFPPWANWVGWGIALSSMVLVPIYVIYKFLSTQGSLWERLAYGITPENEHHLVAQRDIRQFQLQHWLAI

[2] = target: T2, human 5-HT2A receptor (Homo sapiens, UniProt P28223); assay: 5-HT2A FLIPR assay (calcium response to DOI) in CHO cells; format: cell-based; settings: for inhibition at 1 µM: CHO, read-out: 5-HT2A Percentage inhibition at 1 μM; for IC50: antagonist inhibition of 3 nM DOI stimulation, CHO cells, FLIPR
T2 construct: expressed in transfected cells; host or cells: CHO
T2 sequence (P28223 whole entry): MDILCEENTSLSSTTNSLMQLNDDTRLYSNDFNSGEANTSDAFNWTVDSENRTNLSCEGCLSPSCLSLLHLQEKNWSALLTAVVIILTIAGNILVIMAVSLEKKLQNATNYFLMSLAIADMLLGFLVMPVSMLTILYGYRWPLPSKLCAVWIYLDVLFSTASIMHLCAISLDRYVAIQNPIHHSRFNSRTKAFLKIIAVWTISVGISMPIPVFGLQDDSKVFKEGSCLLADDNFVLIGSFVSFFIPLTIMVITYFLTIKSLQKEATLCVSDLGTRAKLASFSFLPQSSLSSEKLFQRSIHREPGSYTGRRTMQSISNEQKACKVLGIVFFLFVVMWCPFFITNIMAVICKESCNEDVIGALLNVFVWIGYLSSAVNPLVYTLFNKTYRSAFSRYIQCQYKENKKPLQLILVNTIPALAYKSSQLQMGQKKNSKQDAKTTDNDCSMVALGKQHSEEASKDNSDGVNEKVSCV
Procedure, shortened: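 CHO cells loaded with calcium dye in HBSS/20 mM HEPES; FLIPR fluorescence recorded after compound addition (10^−10–10^−5 M) for 2 min to detect agonism, then after 3 nM DOI challenge for 5 min for antagonism. Data log transformed before analysis.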

EC50 [1]	IC50 [2]	Compound	inhibition at 1 µM [1]	inhibition at 1 µM [2]
		CN1CCN(C[C@@H](O)[C@H](c2ccccc2)n2ccc3cc(OCc4ccccc4)ccc32)CC1 [Example 91, (1S,2R)-1-[5-(benzyloxy)-1H-indol-1-yl]-3-(4-methylpiperazin-1-yl)-1-phenylpropan-2-ol hydrochloride]	22%	29%
86 nM	636 nM	CNC[C@@H](O)[C@H](c1ccccc1)n1ccc2cc(CCc3ccccc3)ccc21 [Example 94, (1S,2R)-3-(methylamino)-1-phenyl-1-[5-(2-phenylethyl)-1H-indol-1-yl]propan-2-ol hydrochloride]		
		NC[C@@H](O)[C@H](c1ccccc1)N1C(=O)C2(CCCCC2)c2ccc(F)cc21 [Example 95, 1′-[(1S,2R)-3-amino-2-hydroxy-1-phenylpropyl]-6′-fluorospiro[cyclohexane-1,3′-indol]-2′(1′H)-one hydrochloride]	7%	44%
	462 nM	CCNC[C@@H](O)[C@H](c1ccccc1)N1C(=O)C2(CCCCC2)c2ccc(F)cc21 [Example 96, 1′-[(1S,2R)-3-(ethylamino)-2-hydroxy-1-phenylpropyl]-6′-fluorospiro[cyclohexane-1,3′-indol]-2′(1′H)-one hydrochloride]	48%	
		CC(C)NC[C@@H](O)[C@H](c1ccccc1)N1C(=O)C2(CCCCC2)c2ccc(F)cc21 [Example 97, 6′-fluoro-1′-[(1S,2R)-2-hydroxy-3-(isopropylamino)-1-phenylpropyl]spiro[cyclohexane-1,3′-indol]-2′(1′H)-one hydrochloride]	0%	44%
	672 nM	CCCNC[C@@H](O)[C@H](c1ccccc1)N1C(=O)C2(CCCCC2)c2ccc(F)cc21 [Example 98, 6′-fluoro-1′-[(1S,2R)-2-hydroxy-1-phenyl-3-(propylamino)propyl]spiro[cyclohexane-1,3′-indol]-2′(1′H)-one hydrochloride]	0%	
		NC[C@@H](O)[C@H](c1ccccc1)N1C(=O)C2(CCCCC2)c2cc(F)ccc21 [Example 99, 1′-[(1S,2R)-3-amino-2-hydroxy-1-phenylpropyl]-5′-fluorospiro[cyclohexane-1,3′-indol]-2′(1′H)-one hydrochloride]	11%	7%
	378 nM	CCNC[C@@H](O)[C@H](c1ccccc1)N1C(=O)C2(CCCCC2)c2cc(F)ccc21 [Example 100, 1′-[(1S,2R)-3-(ethylamino)-2-hydroxy-1-phenylpropyl]-5′-fluorospiro[cyclohexane-1,3′-indol]-2′(1′H)-one hydrochloride]	31%	
		CC(C)NC[C@@H](O)[C@H](c1ccccc1)N1C(=O)C2(CCCCC2)c2cc(F)ccc21 [Example 101, 5′-fluoro-1′-[(1S,2R)-2-hydroxy-3-(isopropylamino)-1-phenylpropyl]spiro[cyclohexane-1,3′-indol]-2′(1′H)-one hydrochloride]	0%	22%
	895 nM	CCCNC[C@@H](O)[C@H](c1ccccc1)N1C(=O)C2(CCCCC2)c2cc(F)ccc21 [Example 102, 5′-fluoro-1′-[(1S,2R)-2-hydroxy-1-phenyl-3-(propylamino)propyl]spiro[cyclohexane-1,3′-indol]-2′(1′H)-one hydrochloride]	0%	
	77 nM	CN(C)C[C@@H](O)[C@H](c1ccccc1)N1C(=O)C2(CCCCC2)c2cc(F)ccc21 [Example 103, 1′-[(1S,2R)-3-(dimethylamino)-2-hydroxy-1-phenylpropyl]-5′-fluorospiro[cyclohexane-1,3′-indol]-2′(1′H)-one hydrochloride]	19%	
		O=C1N([C@@H](c2ccccc2)[C@H](O)CN2CCOCC2)c2ccc(F)cc2C12CCCCC2 [Example 104, 5′-fluoro-1′-[(1S,2R)-2-hydroxy-3-morpholin-4-yl-1-phenylpropyl]spiro[cyclohexane-1,3′-indol]-2′(1′H)-one hydrochloride]	13%	22%
908 nM	615 nM	CNC[C@@H](O)[C@H](c1ccccc1)N1C(=O)C2(CCCCC2)c2ccc(OC)cc21 [Example 106, 1′-[(1S,2R)-2-hydroxy-3-(methylamino)-1-phenylpropyl]-6′-methoxyspiro[cyclohexane-1,3′-indol]-2′(1′H)-one hydrochloride]		
349 nM	168 nM	CNC[C@@H](O)[C@H](c1ccccc1)N1C(=O)C2(CCCCC2)c2cc(C#N)ccc21 [Example 107, 1′-[(1S,2R)-2-hydroxy-3-(methylamino)-1-phenylpropyl]-2′-oxo-1′,2′-dihydrospiro[cyclohexane-1,3′-indole]-5′-carbonitrile hydrochloride]		
107 nM	1480 nM	CNC[C@@H](O)[C@H](c1ccccc1)N1C(=O)C2(CCCCC2)c2c1ccc(F)c2F [Example 109, 4′,5′-difluoro-1′-[(1S,2R)-2-hydroxy-3-(methylamino)-1-phenylpropyl]spiro[cyclohexane-1,3′-indol]-2′(1′H)-one hydrochloride]		

Compound	EC50 [1]	IC50 [2]	inhibition at 1 µM [1]	inhibition at 1 µM [2]
CNC[C@@H](O)[C@H](c1ccccc1)n1ccc2cc(C#Cc3ccccc3)ccc21 [Example 93, (1S,2R)-3-(methylamino)-1-phenyl-1-[5-(phenylethynyl)-1H-indol-1-yl]propan-2-ol hydrochloride]	287 nM			36%
CNC[C@@H](O)[C@H](c1ccccc1)N1C(=O)C2(CCCCC2)c2cc(OC)ccc21 [Example 105, 1′-[(1S,2R)-2-hydroxy-3-(methylamino)-1-phenylpropyl]-5′-methoxyspiro[cyclohexane-1,3′-indol]-2′(1′H)-one hydrochloride]	81 nM			37%
CNC[C@@H](O)[C@H](c1ccccc1)N1C(=O)C2(CCCCC2)c2ccc(C#N)cc21 [Example 108, 1′-[(1S,2R)-2-hydroxy-3-(methylamino)-1-phenylpropyl]-2′-oxo-1′,2′-dihydrospiro[cyclohexane-1,3′-indole]-6′-carbonitrile hydrochloride]	1260 nM			11%
